Like-named read-outs stand apart in the source and are kept apart here.
Experiments:
HDAC1 = HDAC1 (Rattus norvegicus, UniProt Q4QQW4); type: biochemical
Procedure: After centrifugation, the cleared extract was used for immunoprecipitation of HDAC1. […] (Amersham Pharmacia Biotech, Piscataway, NJ, USA) in a total volume of 50 μl enzyme assay buffer (25 mM HEPES (pH 7.4), 1 M sucrose, 0.1 mg ml^−1 BSA and 0.01% (v v^−1) Triton X-100). Incubation was performed for 45 min at 37°C (immunoprecipitates) or 30 min at room temperature (HeLa nuclear extract). Before addition of substrate, HDAC inhibitors were added at increasing concentrations and preincubated for 10 min at room temperature. After incubation, the reaction was quenched with 35 μl stop buffer (1 M HCl and 0.4 M acetic acid). Released [^3H]acetic acid was extracted with 800 μl ethyl acetate and quantified by scintillation counting. Equal amounts of HDAC1 were immunoprecipitated as indicated by western blot analysis. Histone deacetylase 1 activity results are presented as mean±s.d. of three independent experiments on a single lysate. […] Finally, we measured the activities of different HDAC isotypes present in partially purified extract from rat liver using the fluorescent HDAC substrates MAL (unselective), B61 (selective for HDAC1, and to some extent also converted by HDAC3) and B12 (selective for HDAC6).

HDAC6 = target: T1, HDAC6 (Rattus norvegicus, UniProt A0A8I6GM68); test: biochemical; type: biochemical
T1 construct: partially purified extract from rat liver; from tissue; host or cells: rat liver, partially purified extract
Procedure: (§1) After centrifugation, the cleared extract was used for immunoprecipitation of HDAC1. […] Incubation was performed for 45 min at 37°C (immunoprecipitates) or 30 min at room temperature (HeLa nuclear extract). Before addition of substrate, HDAC inhibitors were added at increasing concentrations and preincubated for 10 min at room temperature. After incubation, the reaction was quenched with 35 μl stop buffer (1 M HCl and 0.4 M acetic acid). Released [^3H]acetic acid was extracted with 800 μl ethyl acetate and quantified by scintillation counting. Equal amounts of HDAC1 were immunoprecipitated as indicated by western blot analysis. Histone deacetylase 1 activity results are presented as mean±s.d. of three independent experiments on a single lysate. […] Finally, we measured the activities of different HDAC isotypes present in partially purified extract from rat liver using the fluorescent HDAC substrates MAL (unselective), B61 (selective for HDAC1, and to some extent also converted by HDAC3) and B12 (selective for HDAC6).

[1] = system: A2780 ovarian carcinoma cells; test: A2780 tumour cell proliferation, MTT colorimetric assay; type: cell-based, human; settings: 4 days, mean±s.d.
Procedure: Control cells were treated with the combined respective vehicle.

[2] = system: H3 acetylation and p21waf1,cip1 in A2780 ovarian carcinoma cells; test: Western blot of acetylated H3 and p21waf1,cip1 in A2780 cells (class I HDAC readout); type: cell-based, human; settings: 24 h, western blot
Procedure: (§2) Human A2780 ovarian carcinoma cells were incubated with the indicated concentrations of HDAC inhibitors. Total cell lysates were prepared and analysed by SDS–PAGE. […] To control for equal loading, blots were stripped and re-probed with mouse monoclonal antiactin IgM (Ab-1, Oncogene Research products, Merck, Darmstadt, Germany). […] Protein–antibody complexes were then visualised by chemiluminescence (Pierce Chemical Co., Perbioscience, Erembodegem, Belgium) or fluorescence (Odyssey) according to manufacturer's instructions.
(§3) Total cell lysates were prepared and analysed by SDS–PAGE. Levels of acetylated H3 and tubulin, and of total levels of H3 and tubulin and of p21^waf1, cip1 and Hsp70 and c-raf protein, were detected using rabbit polyclonal and mouse monoclonal antibodies, followed by ECL detection as indicated in the Methods section. To control for equal loading, blots were stripped and re-probed with antibodies against actin and the nuclear protein Lamin B1. A representative experiment out of three is shown.

[3] = system: tubulin acetylation and Hsp70 in A2780 ovarian carcinoma cells; test: Western blot of acetylated tubulin and Hsp70 in A2780 cells (HDAC6 readout); type: cell-based, human; settings: for concentration at which tubulin acetylation (and Hsp70 induction) is evident: western blot
Procedure: as §2, §3

[4] = system: HDAC isotypes in partially purified extract from rat liver (MAL, unselective); settings: read-out: Liver extract MAL unselective IC50, substrate MAL
Procedure: as §1

T1 sequence (A0A8I6GM68 whole entry): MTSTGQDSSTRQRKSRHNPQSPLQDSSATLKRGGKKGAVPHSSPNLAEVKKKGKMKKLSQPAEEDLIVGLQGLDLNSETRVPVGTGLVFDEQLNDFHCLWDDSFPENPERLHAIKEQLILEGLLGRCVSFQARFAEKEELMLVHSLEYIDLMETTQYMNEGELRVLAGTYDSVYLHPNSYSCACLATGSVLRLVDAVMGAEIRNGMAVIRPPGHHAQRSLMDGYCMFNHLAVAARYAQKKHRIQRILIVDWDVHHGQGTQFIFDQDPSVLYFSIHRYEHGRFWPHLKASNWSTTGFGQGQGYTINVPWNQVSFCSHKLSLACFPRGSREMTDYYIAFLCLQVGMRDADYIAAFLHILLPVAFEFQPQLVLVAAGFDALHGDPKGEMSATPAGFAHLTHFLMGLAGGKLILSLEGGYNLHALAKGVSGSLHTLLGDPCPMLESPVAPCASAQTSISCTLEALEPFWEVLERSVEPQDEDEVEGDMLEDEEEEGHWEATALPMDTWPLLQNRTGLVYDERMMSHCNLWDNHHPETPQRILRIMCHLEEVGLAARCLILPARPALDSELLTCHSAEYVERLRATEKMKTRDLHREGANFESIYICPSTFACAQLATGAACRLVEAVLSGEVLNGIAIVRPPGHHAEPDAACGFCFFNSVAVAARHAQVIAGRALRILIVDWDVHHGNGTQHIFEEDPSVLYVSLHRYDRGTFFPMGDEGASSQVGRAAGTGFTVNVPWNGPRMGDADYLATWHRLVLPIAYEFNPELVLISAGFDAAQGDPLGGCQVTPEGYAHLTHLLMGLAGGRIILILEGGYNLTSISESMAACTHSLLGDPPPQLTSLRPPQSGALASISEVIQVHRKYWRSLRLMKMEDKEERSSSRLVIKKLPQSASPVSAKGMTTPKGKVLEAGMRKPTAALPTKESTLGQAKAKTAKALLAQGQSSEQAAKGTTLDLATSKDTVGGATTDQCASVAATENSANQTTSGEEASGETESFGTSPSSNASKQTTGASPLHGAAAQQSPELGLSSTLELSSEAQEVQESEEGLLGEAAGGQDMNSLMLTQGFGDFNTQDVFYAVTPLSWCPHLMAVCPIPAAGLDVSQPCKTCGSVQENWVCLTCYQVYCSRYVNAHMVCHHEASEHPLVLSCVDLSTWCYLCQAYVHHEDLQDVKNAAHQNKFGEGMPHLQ
HDAC1, sequence (Q4QQW4 whole entry): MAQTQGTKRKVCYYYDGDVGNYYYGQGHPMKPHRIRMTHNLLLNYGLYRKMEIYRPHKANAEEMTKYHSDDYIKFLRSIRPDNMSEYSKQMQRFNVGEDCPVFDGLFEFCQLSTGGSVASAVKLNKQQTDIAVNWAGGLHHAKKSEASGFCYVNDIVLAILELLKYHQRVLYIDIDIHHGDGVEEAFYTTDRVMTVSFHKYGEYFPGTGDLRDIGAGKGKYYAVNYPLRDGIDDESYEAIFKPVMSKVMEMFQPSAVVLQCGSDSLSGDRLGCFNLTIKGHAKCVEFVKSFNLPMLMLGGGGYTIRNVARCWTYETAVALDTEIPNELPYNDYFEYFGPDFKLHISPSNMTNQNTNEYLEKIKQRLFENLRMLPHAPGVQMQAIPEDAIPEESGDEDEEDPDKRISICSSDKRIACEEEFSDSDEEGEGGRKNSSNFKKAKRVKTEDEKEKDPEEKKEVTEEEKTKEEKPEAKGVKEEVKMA

Nc1ccccc1NC(=O)c1ccc(CNC(=O)OCc2cccnc2)cc1 [MS-275]
Liver extract B61 HDAC1 IC50 (HDAC1; rat liver extract, substrate B61): Inactive | Liver extract B12 HDAC6 IC50 (HDAC6; rat liver extract, substrate B12): Inactive | IC50 [1]: 376 ± 169 nM | concentration at which H3 acetylation is induced [2]: 3000 nM | effect on tubulin acetylation or Hsp70 levels ([3]; 3 μM, 24 h): did not affect tubulin acetylation or Hsp70 levels

Cc1[nH]c2ccccc2c1CCNCc1ccc(/C=C/C(=O)NO)cc1 [Panobinostat]
IC50 [4]: 75 ± 4 nM | IC50 (HDAC6): 89 ± 12 nM | substrate preference B61 (HDAC1/HDAC3) vs B12 (HDAC6) (HDAC6; rat liver HDAC preparation): equipotent activity towards both substrates | IC50 ([1]; Homo sapiens, A2780, 96 h): 4.6 ± 1.8 nM | concentration at which H3 acetylation is induced [2]: 100 nM | concentration at which tubulin acetylation (and Hsp70 induction) is evident ([3]; 24 h): 100 nM

CC(/C=C/C(=O)NO)=C\[C@@H](C)C(=O)c1ccc(N(C)C)cc1 [TSA, Trichostatin A]
IC50 [4]: 12 ± 1.2 nM | IC50 (HDAC6; read-out: Liver extract B12 HDAC6 IC50): 20.7 ± 2.6 nM | IC50 [1]: 23 ± 8 nM | concentration at which H3 acetylation is induced [2]: 300 nM | concentration at which tubulin acetylation (and Hsp70 induction) is evident ([3]; 24 h): 300 nM

O=C(CCCCCCC(=O)Nc1ccccc1)NO [Vorinostat, suberoylanilide hydroxamic acid]
IC50 (HDAC1; read-out: Liver extract B61 HDAC1 IC50): 1030 ± 201 nM | cellular potency for HDAC6 vs HDAC1 (higher for HDAC6) ([3]; tubulin acetylation vs H3 acetylation): 10 fold

From PMC2360244 (British Journal of Cancer, 2007)
